# System: Asian patients with solid tumors
# Experiment: phase I safety: treatment-emergent adverse events (NCI CTCAE v4.03), safety population
# Assay type: in vivo
# Description: SAR was administered by weekly intravenous infusion on days 1, 8, 15, and 22 of each 28–day cycle. The starting dose was 260 mg/m^2, and dose increments of 30% were made, to a maximum of 570 mg/m^2. Treatment continued until disease progression, unacceptable toxicity, or consent withdrawal. Patients were screened within 21 days before the first administration and followed for 30 days after the last administration.
# The safety population consisted of all patients exposed to SAR, regardless of the amount of treatment administered.
# [1] = dose-escalation cohort, 260 mg/m^2 (N = 6)
# [2] = dose-escalation cohort, 340 mg/m^2 (N = 4)
# [3] = dose-escalation cohort, 440 mg/m^2 (N = 3)
# [4] = dose-escalation cohort, 570 mg/m^2 (N = 6)
# [5] = dose-expansion cohort, All (N = 19)
# [6] = dose-expansion cohort, GC (N = 14)
compound,measurement,setting,value
O=C(NCCN1CCOCC1)Nc1nc2ccc(Sc3nnc4ccc(-c5ccc(F)cc5)nn34)cc2s1 [SAR125844],patients who discontinued treatment because of a TEAE,TEAE considered unrelated to the study drug,One
same,TEAE Abdominal pains,Total (N = 38),8 (21.1) n (%)
same,TEAE Back pain,Total (N = 38),5 (13.2) n (%)
same,TEAE Cancer pain,Total (N = 38),4 (10.5) n (%)
same,TEAE Constipation,Total (N = 38),8 (21.1) n (%)
same,TEAE Cough,Total (N = 38),4 (10.5) n (%)
same,TEAE Decreased appetite,Total (N = 38),11 (28.9) n (%)
same,TEAE Diarrhea,Total (N = 38),5 (13.2) n (%)
same,"TEAE Edema, peripheral",Total (N = 38),4 (10.5) n (%)
same,TEAE Fatigue/asthenia,Total (N = 38),8 (21.1) n (%)
same,TEAE Injection site reaction/phlebitis,Total (N = 38),7 (18.4) n (%)
same,TEAE Insomnia,Total (N = 38),4 (10.5) n (%)
same,TEAE Nausea,Total (N = 38),14 (36.8) n (%)
same,TEAE Pyrexia,Total (N = 38),7 (18.4) n (%)
same,TEAE Rash,Total (N = 38),4 (10.5) n (%)
same,TEAE Vomiting,Total (N = 38),13 (34.2) n (%)
same,deaths due to adverse events,all patients (N = 38),no deaths
same,frequency of abdominal pains,all patients (N = 38),21.1%
same,frequency of constipation,all patients (N = 38),21.1%
same,frequency of decreased appetite,all patients (N = 38),28.9%
same,frequency of fatigue or asthenia,all patients (N = 38),21.1%
same,frequency of nausea,all patients (N = 38),36.8%
same,frequency of vomiting,all patients (N = 38),34.2%
same,patients with at least one dose modification,all patients (N = 38),Nine
same,patients with drug-related Grade ≥ 3 AEs,all patients (N = 38),7.9%
same,patients with infusion interrupted because of a grade 2 infusion-related reaction,all patients (N = 38),one
same,patients with study-drug related Grade ≥ 3 TEAEs,all patients (N = 38),three
same,serious TEAEs considered study-drug related,all patients (N = 38),none
same,patients with Grade ≥ 3 TEAEs,"all patients (N = 38), 15 patients",39.5%
same,patients with study-drug related TEAEs,"all patients (N = 38), 22 patients",57.9%
same,patients with TEAEs,"all patients (N = 38), 36 patients",94.7%
same,patients with serious TEAEs,"all patients (N = 38), eight patients",21.1%
same,TEAE Abdominal pains,[1],1 (16.7) n (%)
same,TEAE Back pain,[1],3 (50.0) n (%)
same,TEAE Cancer pain,[1],0 (0) n (%)
same,TEAE Constipation,[1],2 (33.3) n (%)
same,TEAE Cough,[1],2 (33.3) n (%)
same,TEAE Decreased appetite,[1],1 (16.7) n (%)
same,TEAE Diarrhea,[1],0 (0) n (%)
same,"TEAE Edema, peripheral",[1],0 (0) n (%)
same,TEAE Fatigue/asthenia,[1],3 (50) n (%)
same,TEAE Injection site reaction/phlebitis,[1],1 (16.7) n (%)
same,TEAE Insomnia,[1],1 (16.7) n (%)
same,TEAE Nausea,[1],1 (16.7) n (%)
same,TEAE Pyrexia,[1],4 (66.7) n (%)
same,TEAE Rash,[1],2 (33.3) n (%)
same,TEAE Vomiting,[1],1 (16.7) n (%)
same,TEAE Abdominal pains,[2],0 (0) n (%)
same,TEAE Back pain,[2],0 (0) n (%)
same,TEAE Cancer pain,[2],0 (0) n (%)
same,TEAE Constipation,[2],0 (0) n (%)
same,TEAE Cough,[2],1 (25.0) n (%)
same,TEAE Decreased appetite,[2],1 (25.0) n (%)
same,TEAE Diarrhea,[2],0 (0) n (%)
same,"TEAE Edema, peripheral",[2],0 (0) n (%)
same,TEAE Fatigue/asthenia,[2],0 (0) n (%)
same,TEAE Injection site reaction/phlebitis,[2],0 (0) n (%)
same,TEAE Insomnia,[2],0 (0) n (%)
same,TEAE Nausea,[2],2 (50) n (%)
same,TEAE Pyrexia,[2],0 (0) n (%)
same,TEAE Rash,[2],1 (25.0) n (%)
same,TEAE Vomiting,[2],1 (25.0) n (%)
same,TEAE Abdominal pains,[3],1 (33.3) n (%)
same,TEAE Back pain,[3],0 (0) n (%)
same,TEAE Cancer pain,[3],1 (33.3) n (%)
same,TEAE Constipation,[3],1 (33.3) n (%)
same,TEAE Cough,[3],0 (0) n (%)
same,TEAE Decreased appetite,[3],1 (33.3) n (%)
same,TEAE Diarrhea,[3],0 (0) n (%)
same,"TEAE Edema, peripheral",[3],0 (0) n (%)
same,TEAE Fatigue/asthenia,[3],1 (33.3) n (%)
same,TEAE Injection site reaction/phlebitis,[3],0 (0) n (%)
same,TEAE Insomnia,[3],0 (0) n (%)
same,TEAE Nausea,[3],0 (0) n (%)
same,TEAE Pyrexia,[3],0 (0) n (%)
same,TEAE Rash,[3],0 (0) n (%)
same,TEAE Vomiting,[3],0 (0) n (%)
same,TEAE Abdominal pains,[4],0 (0) n (%)
same,TEAE Back pain,[4],0 (0) n (%)
same,TEAE Cancer pain,[4],2 (33.3) n (%)
same,TEAE Constipation,[4],1 (16.7) n (%)
same,TEAE Cough,[4],0 (0) n (%)
same,TEAE Decreased appetite,[4],0 (0) n (%)
same,TEAE Diarrhea,[4],0 (0) n (%)
same,"TEAE Edema, peripheral",[4],1 (16.7) n (%)
same,TEAE Fatigue/asthenia,[4],0 (0) n (%)
same,TEAE Injection site reaction/phlebitis,[4],1 (16.7) n (%)
same,TEAE Insomnia,[4],0 (0) n (%)
same,TEAE Nausea,[4],3 (50) n (%)
same,TEAE Pyrexia,[4],0 (0) n (%)
same,TEAE Rash,[4],0 (0) n (%)
same,TEAE Vomiting,[4],1 (16.7) n (%)
same,TEAE Back pain,[5],2 (10.5) n (%)
same,TEAE Cancer pain,[5],1 (5.3) n (%)
same,TEAE Constipation,[5],4 (21.1) n (%)
same,TEAE Cough,[5],1 (5.3) n (%)
same,TEAE Decreased appetite,[5],8 (42.1) n (%)
same,TEAE Diarrhea,[5],5 (26.3) n (%)
same,"TEAE Edema, peripheral",[5],3 (15.8) n (%)
same,TEAE Fatigue/asthenia,[5],4 (21.1) n (%)
same,TEAE Injection site reaction/phlebitis,[5],5 (26.3) n (%)
same,TEAE Insomnia,[5],3 (15.8) n (%)
same,TEAE Nausea,[5],8 (42.1) n (%)
same,TEAE Pyrexia,[5],3 (15.8) n (%)
same,TEAE Rash,[5],1 (5.3) n (%)
same,TEAE Vomiting,[5],10 (52.6) n (%)
same,TEAE Abdominal pains,[6],2 (14.3) n (%)
same,TEAE Back pain,[6],2 (14.3) n (%)
same,TEAE Cancer pain,[6],1 (7.1) n (%)
same,TEAE Constipation,[6],2 (14.3) n (%)
same,TEAE Cough,[6],1 (7.1) n (%)
same,TEAE Decreased appetite,[6],5 (35.7) n (%)
same,TEAE Diarrhea,[6],4 (28.6) n (%)
same,"TEAE Edema, peripheral",[6],2 (14.3) n (%)
same,TEAE Fatigue/asthenia,[6],2 (14.3) n (%)
same,TEAE Injection site reaction/phlebitis,[6],4 (28.6) n (%)
same,TEAE Insomnia,[6],2 (14.3) n (%)
same,TEAE Nausea,[6],4 (28.6) n (%)
same,TEAE Pyrexia,[6],1 (7.1) n (%)
same,TEAE Rash,[6],1 (7.1) n (%)
same,TEAE Vomiting,[6],6 (42.9) n (%)
same,cases of transaminase increase (grade ≥ 3) leading to dose modification,laboratory findings,Two

# Reference: article PMC5668067, “Phase I dose-escalation study of the c-Met tyrosine kinase inhibitor SAR125844 in Asian patients with advanced solid tumors, including patients with MET-amplified gastric cancer” (Oncotarget, 2017)
